US20200138727A1, “ENHANCED THERAPEUTIC AGENT AND NUCLEIC ACID DELIVERY VIA HDL OR RECONSTITUTED HDL NANOPARTICLES” (UNIVERSITY OF NORTH TEXAS HEALTH SCIENCE CENTER, priority 2017, published 2020)

Tests used:
cancer cells = conditions: encapsulated by HDL delivery particles; HDL receptor mediated mechanism (Lacko et al., 2002); cited from earlier work
[1] = tested on: DU-145 (prostate cancer) cells; experiment: Confocal / fluorescence lifetime microscopy of doxorubicin uptake from rHDL-Doxorubicin nanoparticles; format: cell-based
Procedure: The data presented in FIGS. 11-12 were obtained via fluorescence lifetime microscopy via the following protocols. Apo A-I was labeled with Alexa Fluor 647 (Fluorescent dye Excitation: 650 nm; Emission:665 nm), using Alexa Fluor™ 647 Antibody Labeling Kit (by Thermo Fisher) according to the manufacturer's protocol. The rHDL-Doxorubicin nanoparticles were prepared with the Alexa Fluor 647 labeled Apo A-I, using the cholate dialysis protocol. The DU-145 (prostate cancer) cells were treated with the rHDL-Doxorubicin nanoparticles at 37° C./5% CO2 and observed under confocal microscopy for uptake of doxorubicin. In order to inhibit the uptake, […] antibody was used to block the receptor activity.
For imaging, the cells were plated on custom glass bottom petri dishes. Before imaging, the cells were washed with PBS, and doped with several concentrations of free or rHDL-doxorubicin formulations. For SR-B1 receptor blocking, the DU-145 cells were incubated with antibodies for SR-B1 receptor for 30 minutes at 5% CO2 and 37° C. The cells were excited with a 470 nm diode at 70% power, and the emission imaged at 600 nm. […] For dual label experiments, the samples were excited at 470 nm and 630 nm, with a 520 nm long pass filter on channel 1 to observe DOX fluorescence, and a 647 nm long pass on filter on channel 2 to observe […] emission. […]

CC(=O)O[C@H]1C(=O)[C@@]2(C)[C@H]([C@H](OC(=O)c3ccccc3)[C@]3(O)C[C@H](OC(=O)[C@H](O)[C@@H](NC(=O)c4ccccc4)c4ccccc4)C(C)=C1C3(C)C)[C@]1(OC(C)=O)CO[C@@H]1C[C@@H]2O [paclitaxel]
uptake by cancer cells (cancer cells): taken up by cancer cells

COc1cccc2c1C(=O)c1c(O)c3c(c(O)c1C2=O)C[C@@](O)(C(=O)CO)C[C@@H]3O[C@H]1C[C@H](N)[C@H](O)[C@H](C)O1 [doxorubicin]
cellular localization of doxorubicin ([1]; DU-145 cells treated with rHDL-Doxorubicin nanoparticles, FIG. 11A, FIG. 12): released into the cell cytoplasm

Alexa 647-conjugated Apo A-I: Apo A-I labeled with Alexa Fluor 647 fluorescent dye
cellular localization of labeled Apo A-I ([1]; DU-145 cells treated with rHDL-Doxorubicin nanoparticles prepared with labeled Apo A-I, FIG. 11B): only localized in the membrane of the cell and does not enter the cell
